Laboratory results as given in patent US20130130992A1, “DIPEPTIDE DERIVATIVE FOR THE TREATMENT OF CANCER” (ONCOTEST GMBH, priority 2010, published 2013).
Several values for one entry are separate records, joined by “and”; a condition that tells them apart may be missing. Identical values can stand only once. Like-named read-outs stand apart in the source and are kept apart here.

How the values were obtained:
Format in all cases: cell-based
MEXF 462NL = test: Monolayer propidium iodide assay, MEXF 462NL; details: Homo sapiens, 96 h, Melanoma, 4 days of treatment
Source text: (§1) Oncotest GmbH, Germany's proprietary tumor cell line panel comprises 40 cell lines. These cell lines were derived from 15 different tumor histotypes, each represented by 1 to 6 different cell lines. Cell lines were established from cancer of the bladder (3), colon (4), head and neck (1), lung (6), breast (3), pancreas (3), prostate (4), ovary (2), kidney (3), liver (1), stomach (1) and the uteri body (1), as well as from melanoma (3), sarcoma (2) and pleuramesothelioma (3). Out of these 40 cell lines, 24 cell lines were established at Oncotest, from patient-derived tumor xenografts. […]
(§2) Stock solutions of the compound of formula (1) (3.3 mM in DMSO) were prepared and stored in small aliquots (200 μl) at −20° C. […] Each concentration was evaluated in triplicate. […]
(§3) Cells were plated in 96-well flat-bottom microtiter plates at a cell density of 4,000 to 20,000 cells/well. […] After an incubation period of 1-2 hours at room temperature, fluorescence (FU) was measured using the Cytofluor 4000 microplate reader (excitation λ=530 nm, emission λ=620 nm) to quantify the amount of attached viable cells. […] Based on the T/C values, relative IC50 values were determined by non-linear regression (log [conc. of inhibitor] versus response (% T/C)) using the GraphPad Prism® analysis software (Prism 5 for Windows, version 5.01, GraphPad Software Inc., CA). […]

OVXF 899L = test: Monolayer propidium iodide assay, OVXF 899L; details: Homo sapiens, 96 h, Ovarian, 4 days of treatment
Source text: as §1, §2, §3

BXF T 24 = test: Monolayer propidium iodide assay, BXF T 24; details: Homo sapiens, 96 h; BXF T 24, Bladder; 4 days of treatment
Source text: as §1, §2, §3

MEXF 1341L = test: Monolayer propidium iodide assay, MEXF 1341L; details: Homo sapiens, 96 h, Melanoma, 4 days of treatment
Source text: as §1, §2, §3

RXF 393NL = test: Monolayer propidium iodide assay, RXF 393NL; details: Homo sapiens, 96 h, Renal, 4 days of treatment
Source text: as §1, §2, §3

RXF 486L = test: Monolayer propidium iodide assay, RXF 486L; details: Homo sapiens, 96 h, Renal, 4 days of treatment
Source text: as §1, §2, §3

UXF 1138L = test: Monolayer propidium iodide assay, UXF 1138L; details: Homo sapiens, 96 h, Uterus, 4 days of treatment
Source text: as §1, §2, §3

PXF 1752L = test: Monolayer propidium iodide assay, PXF 1752L; details: Homo sapiens, 96 h, Pleuramesothelioma, 4 days of treatment
Source text: as §1, §2, §3

BXF 1218L = test: Monolayer propidium iodide assay, BXF 1218L; details: Homo sapiens, 96 h, Bladder, 4 days of treatment
Source text: as §1, §2, §3

[1] = tested on: panel of 40 human tumor cell lines; test: Monolayer propidium iodide assay, whole panel; details: for IC50: Homo sapiens
Source text: Oncotest GmbH, Germany's proprietary tumor cell line panel comprises 40 cell lines. These cell lines were derived from 15 different tumor histotypes, each represented by 1 to 6 different cell lines. Cell lines were established from cancer of the bladder (3), colon (4), head and neck (1), lung (6), breast (3), pancreas (3), prostate (4), ovary (2), kidney (3), liver (1), stomach (1) and the uteri body (1), as well as from melanoma (3), sarcoma (2) and pleuramesothelioma (3). Out of these 40 cell lines, 24 cell lines were established at Oncotest, from patient-derived tumor xenografts. The other 16 cell lines were either provided by the NCl (Bethesda; MD, USA) or were purchased from ATCC (Rockville, Md., USA) or DSMZ (Braunschweig, Germany).
Cell lines were routinely passaged once or twice weekly and maintained in culture for upto 20 passages. All the cells were grown at 37° C. in a humidified atmosphere with 5% (Carbon Dioxide) CO2 in RPMI 1640 medium supplemented with 10% (v/v) fetal calf serum (FCS) and 0.1 mg/ml gentamicin (medium and all other components from PAA, Colbe, Germany). Authenticity of all cell lines was proven by STR (short tandem repeat) analysis, a PCR based DNA-fingerprinting methodology.
Stock solutions of the compound of formula (1) (3.3 mM in DMSO) were prepared and stored in small aliquots (200 μl) at −20° C. An aliquot of the stock solution was thawed on the day of use and stored at room temperature prior to and during dosing. The subsequent dilutions were done with complete RPMI 1640 cell culture medium as follows: the stock solution was diluted 1:22 followed by serial dilutions finally resulting in a (compared to the test concentration) 15-fold higher concentration. For the final dilution step (1:15), 10 μl/well of the solution was directly added to 140 μl/well culture medium. Compound of formula (1) [also referred as test compound] was tested at 0.00032, 0.001, 0.0032, 0.01, 0.032, 0.1, 0.32, 1, 3.2 and 10 μM. Each concentration was evaluated in triplicate.
A modified Propidium Iodide assay was used to assess the effect of the compound of formula (1) on the growth of the human tumor cell lines and was designed as in reference, Anti-cancer Drugs, 6, 522-532, (1995), the disclosure of which is incorporated by reference for the teaching of the assay.
Cells were plated in 96-well flat-bottom microtiter plates at a cell density of 4,000 to 20,000 cells/well. After a 24 hr recovery period to allow the cells to resume exponential growth, the compound of formula (1) was applied at 10 concentrations in half-log increments in triplicates and treatment continued for 4 days. After 4 days of treatment, cells were next washed with 200 μl phosphate buffer solution (PBS) to remove dead cells, then 200 μl of a solution containing 7 μg/ml propidium iodide (PI) and 0.1% (v/v) Triton X-100 were added to the wells. After an incubation period of 1-2 hours at room temperature, fluorescence (FU) was measured using the Cytofluor 4000 microplate reader (excitation λ=530 nm, emission λ=620 nm) to quantify the amount of attached viable cells. Pharmacological effects on cell proliferation and survival were expressed as Test/Control×100 (% T/C) values, with T and C representing the fluorescence read-outs for wells with and without test compound, respectively, i.e. T/C represents the ratio of viable cell numbers following incubation of cell line with and without test compound. Based on the T/C values, relative IC50 values were determined by non-linear regression (log [conc. of inhibitor] versus response (% T/C)) using the GraphPad Prism® analysis software (Prism 5 for Windows, version 5.01, GraphPad Software Inc., CA). For calculation of mean IC50 values over the 40 cell lines as tested, the geometric mean was selected. If Graph Pad Prism could not calculate reliable IC50 values by non-linear regression, the IC50 value was estimated by visual inspection of the concentration-effect curve.

PAXF 546L = test: Monolayer propidium iodide assay, PAXF 546L; details: Homo sapiens, 96 h, Pancreas, 4 days of treatment
Source text: as §1, §2, §3

LXFL 1121L = test: Monolayer propidium iodide assay, LXFL 1121L; details: Homo sapiens, 96 h, Lung, 4 days of treatment
Source text: as §1, §2, §3

PXF 1118L = test: Monolayer propidium iodide assay, PXF 1118L; details: Homo sapiens, 96 h, Pleuramesothelioma, 4 days of treatment
Source text: as §1, §2, §3

LIXF 575L = test: Monolayer propidium iodide assay, LIXF 575L; details: Homo sapiens, 96 h, Liver, 4 days of treatment
Source text: as §1, §2, §3

LXFL H 460 = test: Monolayer propidium iodide assay, LXFL H 460; details: Homo sapiens, NCI-H460, 96 h; LXFL H 460, Lung; 4 days of treatment
Source text: as §1, §2, §3

PRXF PC3M = test: Monolayer propidium iodide assay, PRXF PC3M; details: Homo sapiens, PC-3M, 96 h, Prostate, 4 days of treatment
Source text: as §1, §2, §3

Q: Which results are given for `CCCC1CCCCCC(O)CC(=O)NC2CSSCC(NC2=O)C(=O)O1` (centres unmarked) [compound of formula (1)]?
A: IC50 (MEXF 462NL): 149 nM; IC50 (OVXF 899L): 301 nM; IC50 (BXF T 24): 50 nM; IC50 (MEXF 1341L): 102 nM; IC50 (RXF 393NL): 323 nM; IC50 (RXF 486L): 159 nM; IC50 (UXF 1138L): 126 nM; IC50 (PXF 1752L): 187 nM; IC50 (BXF 1218L): 46 nM; antitumor activity in all cell lines as tested ([1]; 0.00032 to 10 μM, 40 cell lines, 15 histotypes): concentration-dependent antitumor activity; Tumor selectivity: number of cell lines with individual IC50 < mean IC50 ([1]; Bladder): 2 out of 3 and 2/3; Tumor selectivity: number of cell lines with individual IC50 < mean IC50 ([1]; Breast): 1/3; Tumor selectivity: number of cell lines with individual IC50 < mean IC50 ([1]; Colon): 3/4; IC50 ([1]; 3/3 pancreatic tumor cell lines, read-out: individual IC50, pancreatic tumor cell lines): < 60 nM; IC50 ([1]; 5/6 cell lines derived from lung carcinoma, read-out: individual IC50, lung carcinoma cell lines): < 50 nM; IC50 ([1]; geometric mean over the 40 cell lines, read-out: Mean IC50): 89 nM; IC50 ([1]; upper bound for every cell line of the panel, read-out: IC50 achieved for all the 40 cell lines): < 330 nM; Tumor selectivity: number of cell lines with individual IC50 < mean IC50 ([1]; Kidney): 0/3; Tumor selectivity: number of cell lines with individual IC50 < mean IC50 ([1]; Lung): 5/6; Tumor selectivity: number of cell lines with individual IC50 < mean IC50 ([1]; Melanoma): 0/3; Tumor selectivity: number of cell lines with individual IC50 < mean IC50 ([1]; Pancreas): 3/3; Tumor selectivity: number of cell lines with individual IC50 < mean IC50 ([1]; Pleurameso): 1/3; Tumor selectivity: number of cell lines with individual IC50 < mean IC50 ([1]; Prostate): 2/4; IC50 (PAXF 546L): 16 nM; IC50 (LXFL 1121L): 47 nM; IC50 (PXF 1118L): 54 nM; IC50 (LIXF 575L): 295 nM; IC50 (LXFL H 460): 146 nM; IC50 (PRXF PC3M): 47 nM
